Experimental data from US20240132484A1, “BROAD SPECTRUM ANTIVIRAL COMPOUNDS TARGETING THE SKI COMPLEX” (priority 2020, published 2024).
Values joined by “and” are separate entries in the source; they are usually repeats but may differ in a detail not shown here. Equal entries are not always repeated. Where two headings read alike, the source gives them in different places.

Columns and labels:
SARS2 = type: cell-based, SARS-CoV-2; conditions: for Percentage Infection Relative to Appropriate DMSO Control with Avg Background Subtraction: single well

Cc1cc(CN(CCN(C)C)Cc2ccsc2)oc1C [SILCS27]
Infection Data, Average, Mean (SARS2; Average of Exp 1-3, n 9, 1 uM): 101.69% | Infection Data, Average, Mean (SARS2; Average of Exp 1-3, n 9, 5 uM): 91.50% | Infection Data, Average, Mean (SARS2; Average of Exp 1-3, n 9, 10 uM): 93.59% | Infection Data, Average, Mean (SARS2; Average of Exp 1-3, n 9, 25 uM): 67.45% | Infection Data, Average, Mean (SARS2; Average of Exp 1-3, n 9, 50 uM): 20.11% | Percentage Infection Relative to Appropriate DMSO Control with Avg Background Subtraction (SARS2; Exp 1 (SMW475), 1 uM): 107.33% and 128.47% and 95.32% | Percentage Infection Relative to Appropriate DMSO Control with Avg Background Subtraction (SARS2; Exp 1 (SMW475), 5 uM): 113.52% and 118.94% and 106.69% | Percentage Infection Relative to Appropriate DMSO Control with Avg Background Subtraction (SARS2; Exp 1 (SMW475), 10 uM): 137.00% and 134.73% and 122.43% | Percentage Infection Relative to Appropriate DMSO Control with Avg Background Subtraction (SARS2; Exp 1 (SMW475), 25 uM): 63.59% and 56.84% and 58.04% | Percentage Infection Relative to Appropriate DMSO Control with Avg Background Subtraction (SARS2; Exp 1 (SMW475), 50 uM): 15.03% and 16.97% and 13.28% | Percentage Infection Relative to Appropriate DMSO Control with Avg Background Subtraction (SARS2; Exp 2 (SMW477), 1 uM): 100.41% and 105.41% and 110.54% | Percentage Infection Relative to Appropriate DMSO Control with Avg Background Subtraction (SARS2; Exp 2 (SMW477), 5 uM): 92.70% and 91.91% and 94.77% | Percentage Infection Relative to Appropriate DMSO Control with Avg Background Subtraction (SARS2; Exp 2 (SMW477), 10 uM): 76.80% and 77.09% and 89.00% | Percentage Infection Relative to Appropriate DMSO Control with Avg Background Subtraction (SARS2; Exp 2 (SMW477), 25 uM): 62.89% and 48.77% and 73.05% | Percentage Infection Relative to Appropriate DMSO Control with Avg Background Subtraction (SARS2; Exp 2 (SMW477), 50 uM): 26.32% and 19.89% and 21.80% | Percentage Infection Relative to Appropriate DMSO Control with Avg Background Subtraction (SARS2; Exp 3 (SMW478), 1 uM): 87.75% and 89.34% and 90.68% | Percentage Infection Relative to Appropriate DMSO Control with Avg Background Subtraction (SARS2; Exp 3 (SMW478), 5 uM): 79.11% and 61.06% and 64.83% | Percentage Infection Relative to Appropriate DMSO Control with Avg Background Subtraction (SARS2; Exp 3 (SMW478), 10 uM): 89.71% and 51.99% and 63.55% | Percentage Infection Relative to Appropriate DMSO Control with Avg Background Subtraction (SARS2; Exp 3 (SMW478), 25 uM): 80.23% and 76.86% and 86.74% | Percentage Infection Relative to Appropriate DMSO Control with Avg Background Subtraction (SARS2; Exp 3 (SMW478), 50 uM): 18.61% and 22.87% and 26.23% | Percentage Inhibition Average 1 μM (SARS2; SARS2, 1 μM): −1.69% | Screening data (Relative infection to DMSO controls) Average 1 μM (SARS2; SARS2, 1 μM, 100=DMSO control): 101.69 | Percentage Inhibition Average 5 μM (SARS2; SARS2, 5 μM): 8.50% | Screening data (Relative infection to DMSO controls) Average 5 μM (SARS2; SARS2, 5 μM, 100=DMSO control): 91.50 | Percentage Inhibition Average 10 μM (SARS2; SARS2, 10 μM): 6.41% | Screening data (Relative infection to DMSO controls) Average 10 μM (SARS2; SARS2, 10 μM, 100=DMSO control): 93.59 | Percentage Inhibition Average 25 μM (SARS2; SARS2, 25 μM): 32.55% | Screening data (Relative infection to DMSO controls) Average 25 μM (SARS2; SARS2, 25 μM, 100=DMSO control): 67.45 | Percentage Inhibition Average 50 μM (SARS2; SARS2, 50 μM): 79.89% | Screening data (Relative infection to DMSO controls) Average 50 μM (SARS2; SARS2, 50 μM, 100=DMSO control): 20.11 | Average (relative infection to DMSO over the 5 tested concentrations) (SARS2; SARS2, average over 1 to 50 uM, 100=DMSO control): 74.87 | Relative cell count to DMSO controls, Average 1 μM (cells (nuclei count); 1 μM, toxicity data, 100=DMSO control): 109.07 | Relative cell count to DMSO controls, Average 5 μM (cells (nuclei count); 5 μM, toxicity data, 100=DMSO control): 120.66 | Relative cell count to DMSO controls, Average 10 μM (cells (nuclei count); 10 μM, toxicity data, 100=DMSO control): 120.18 | Relative cell count to DMSO controls, Average 25 μM (cells (nuclei count); 25 μM, toxicity data, 100=DMSO control): 103.23 | Relative cell count to DMSO controls, Average 50 μM (cells (nuclei count); 50 μM, toxicity data, 100=DMSO control): 86.33 | Toxicity Data, Average, Mean (cells (nuclei count); Average of Exp 1-3, n 9, 1 uM): 109.07% | Toxicity Data, Average, Mean (cells (nuclei count); Average of Exp 1-3, n 9, 5 uM): 120.66% | Toxicity Data, Average, Mean (cells (nuclei count); Average of Exp 1-3, n 9, 10 uM): 120.18% | Toxicity Data, Average, Mean (cells (nuclei count); Average of Exp 1-3, n 9, 25 uM): 103.23% | Toxicity Data, Average, Mean (cells (nuclei count); Average of Exp 1-3, n 9, 50 uM): 86.33% | Relative cell count to DMSO controls, Average (for correlation analysis) (cells (nuclei count); average value over the 5 tested concentrations (1 to 50 uM)): 107.89
